Here are results for 20 compounds from patent US9045491B2, “Thienyl [3,2-D] pyrimidin-4-one compounds, preparation method, pharmaceutical compositions and use thereof” (SHANGHAI INSTITUTE OF MATERIA MEDICA, CHINESE ACADEMY OF …, priority 2011, dated 2015).

Type in all cases: biochemical
The target in assay [1] is T1, Human DPP 9 (Homo sapiens, UniProt Q86TI2).
T1 construct: made in house; host or cells: insect cells, baculovirus Bac-to-Bac
As to the kind of experiment: DPP 9 activity screening (Ala-Pro-AMC fluorescence). The note with it: N.I. = No Inhibition. An excerpt: (§1) Screening method: dipeptidyl peptidase IV (DPP IV) activity screening, dipeptidyl peptidase 7 (DPP 7), dipeptidyl peptidase 8 (DPP 8) activity screening, and dipeptidyl peptidase 9 (DPP 9) activity screening.
(§2) Materials: human DPP IV, obtained extracellular fragment of protease DPP IV (aa29-766), was expressed and purified by our laboratory using baculovirus expression system Bac-to-Bac (purchased from GIBCO company) in accordance with the conventional experimental technology; human DPP 8 was obtained in insect cells by our laboratory using baculovirus expression system Bac-to-Bac (purchased from GIBCO company) in accordance with the conventional experimental technology; Human DPP 9 was obtained in insect cells by our laboratory using baculovirus expression system Bac-to-Bac (purchased from GIBCO company) in accordance with the conventional experimental technology; and the substrate Ala-Pro-AMC was synthesized by GL Biochem (Shanghai) Ltd.
(§3) Principle of Activity test: DPP IV, DPP 8 and DPP 9 can specifically hydrolyze the substrate Ala-Pro-AMC to form product AMC, and AMC is excited by 355 nm of UV light to generate 460 nm of emission light. The linear change of fluorescence value at 460 nm in unit time was dynamically measured and DPP IV activity was obtained by calculation.
(§4) Sample treatment: the sample was dissolved in DMSO and stored in low temperature. The concentration of DMSO in the final system was controlled so that the detected activity was not affected.
(§5) The activity of sample was tested under the selected single concentration from preliminary screening, for example, 20 μg/mL. […] The software for calculation was Graphpad Prism 4 and the model used for fitting was sigmoidal dose-response (variable slope). For most inhibitor screening models, the bottom and top of the fitting curve were set to 0 and 100.

In assay [2] the target is dipeptidyl peptidase 7 (DPP 7) (Homo sapiens, UniProt Q9UHL4). Description: DPP 7 activity screening. The note with it: N.I. = No Inhibition. The protocol: as §1, §4, §5
Assay [3] has as its target T2, human DPP IV (Homo sapiens, UniProt P27487).
T2 construct: extracellular fragment of protease DPP IV (aa29-766); made in house; host or cells: baculovirus expression system Bac-to-Bac
As to the kind of experiment: DPP IV activity screening (Ala-Pro-AMC fluorescence). The method, then:
as §1
Instruments: Microplate Reader (PerkinElmer, USA).
The linear change of fluorescence value at 460 nm in unit time was dynamically measured and DPP IV activity was obtained by calculation.
as §4, §5

The target of assay [4] is T3, human DPP 8 (Homo sapiens, UniProt Q6V1X1).
T3 construct: made in house; host or cells: insect cells, baculovirus Bac-to-Bac
T3 sequence (Q6V1X1 whole entry): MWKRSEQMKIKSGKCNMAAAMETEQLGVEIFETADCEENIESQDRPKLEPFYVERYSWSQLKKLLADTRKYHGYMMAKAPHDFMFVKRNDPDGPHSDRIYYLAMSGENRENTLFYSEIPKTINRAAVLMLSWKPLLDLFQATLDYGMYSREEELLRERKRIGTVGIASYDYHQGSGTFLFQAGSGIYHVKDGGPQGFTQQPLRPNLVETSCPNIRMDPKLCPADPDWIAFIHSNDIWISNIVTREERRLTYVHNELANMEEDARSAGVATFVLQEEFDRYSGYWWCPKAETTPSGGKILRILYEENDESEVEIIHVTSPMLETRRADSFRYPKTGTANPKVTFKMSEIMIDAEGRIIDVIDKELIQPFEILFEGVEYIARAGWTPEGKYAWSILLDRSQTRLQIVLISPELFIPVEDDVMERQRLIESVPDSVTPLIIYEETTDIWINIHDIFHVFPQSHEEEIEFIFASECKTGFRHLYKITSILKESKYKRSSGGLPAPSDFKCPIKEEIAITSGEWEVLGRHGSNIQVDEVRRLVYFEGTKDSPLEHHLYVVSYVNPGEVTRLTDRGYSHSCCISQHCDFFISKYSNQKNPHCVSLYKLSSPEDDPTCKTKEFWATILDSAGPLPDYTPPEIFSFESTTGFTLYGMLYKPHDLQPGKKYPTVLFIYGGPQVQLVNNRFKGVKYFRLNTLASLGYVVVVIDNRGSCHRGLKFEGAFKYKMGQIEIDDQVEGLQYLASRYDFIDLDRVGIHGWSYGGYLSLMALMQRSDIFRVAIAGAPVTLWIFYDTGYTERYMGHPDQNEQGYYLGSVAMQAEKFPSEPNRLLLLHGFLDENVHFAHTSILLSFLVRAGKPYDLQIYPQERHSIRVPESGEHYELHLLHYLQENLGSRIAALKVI
Description: DPP 8 activity screening (Ala-Pro-AMC fluorescence). The note with it: N.I. = No Inhibition.
Source text: as §1, §2, §3, §4, §5

T1 sequence (Q86TI2 whole entry): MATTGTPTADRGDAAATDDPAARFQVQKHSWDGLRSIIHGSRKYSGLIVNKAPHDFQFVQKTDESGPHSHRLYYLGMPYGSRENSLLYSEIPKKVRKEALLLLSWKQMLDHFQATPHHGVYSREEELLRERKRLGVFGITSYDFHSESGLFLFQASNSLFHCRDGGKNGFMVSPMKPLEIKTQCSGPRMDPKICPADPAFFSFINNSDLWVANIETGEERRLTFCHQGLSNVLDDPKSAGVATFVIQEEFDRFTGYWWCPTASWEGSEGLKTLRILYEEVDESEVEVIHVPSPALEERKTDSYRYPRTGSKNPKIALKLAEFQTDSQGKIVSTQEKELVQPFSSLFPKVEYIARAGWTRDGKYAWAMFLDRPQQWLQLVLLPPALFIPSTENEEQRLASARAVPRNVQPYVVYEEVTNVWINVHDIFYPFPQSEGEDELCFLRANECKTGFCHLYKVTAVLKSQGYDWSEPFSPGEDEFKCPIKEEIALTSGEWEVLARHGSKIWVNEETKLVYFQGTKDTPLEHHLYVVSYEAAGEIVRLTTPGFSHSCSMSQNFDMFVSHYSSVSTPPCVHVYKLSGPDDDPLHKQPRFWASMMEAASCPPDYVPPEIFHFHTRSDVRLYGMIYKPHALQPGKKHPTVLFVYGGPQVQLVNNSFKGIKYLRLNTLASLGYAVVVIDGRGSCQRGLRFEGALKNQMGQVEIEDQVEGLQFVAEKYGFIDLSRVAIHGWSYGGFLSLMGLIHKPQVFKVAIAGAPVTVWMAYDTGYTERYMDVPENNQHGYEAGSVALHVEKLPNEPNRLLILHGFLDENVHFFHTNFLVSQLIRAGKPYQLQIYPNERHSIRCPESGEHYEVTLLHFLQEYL
T2 sequence (P27487 29-766): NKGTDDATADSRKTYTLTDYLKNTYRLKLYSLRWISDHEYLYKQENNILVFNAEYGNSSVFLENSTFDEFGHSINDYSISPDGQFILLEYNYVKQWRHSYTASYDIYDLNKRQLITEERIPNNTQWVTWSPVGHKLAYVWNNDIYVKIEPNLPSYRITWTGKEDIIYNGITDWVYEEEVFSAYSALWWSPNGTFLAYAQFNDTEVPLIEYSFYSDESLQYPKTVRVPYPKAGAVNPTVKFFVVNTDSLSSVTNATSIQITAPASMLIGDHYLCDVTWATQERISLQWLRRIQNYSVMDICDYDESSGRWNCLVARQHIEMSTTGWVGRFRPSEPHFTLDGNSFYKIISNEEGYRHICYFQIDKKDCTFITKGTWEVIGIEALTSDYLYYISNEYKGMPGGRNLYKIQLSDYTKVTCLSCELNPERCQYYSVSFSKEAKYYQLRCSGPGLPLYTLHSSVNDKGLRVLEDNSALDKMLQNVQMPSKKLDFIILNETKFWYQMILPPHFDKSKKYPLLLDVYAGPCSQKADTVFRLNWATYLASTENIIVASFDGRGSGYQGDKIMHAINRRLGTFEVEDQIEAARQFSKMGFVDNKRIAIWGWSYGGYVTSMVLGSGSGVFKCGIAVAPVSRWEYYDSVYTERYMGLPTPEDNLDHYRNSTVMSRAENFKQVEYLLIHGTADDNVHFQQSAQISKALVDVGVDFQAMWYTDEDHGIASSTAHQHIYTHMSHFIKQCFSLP

`CCOC(=O)CCCNC(=O)c1csc2c(=O)n(Cc3ccccc3C#N)c(N3CCC[C@@H](N)C3)nc12` [Compound 89, (R)-ethyl 4-(2-(3-aminopiperidin-1-yl)-3-(2-cyanobenzyl)-4-oxo-3,4-dihydrothieno[3,2-d]pyrimidine-7-carboxamido)butanoate]: the “DPP 9 IC50” value in assay [1] is recorded as “N.I”. Besides, the “DPP 7 IC50” value in assay [2] was “N.I”. For the same compound, the IC50 in assay [3] was 14.3 nM; in assay [4], 39400 nM.
In assay [3], `N#Cc1ccccc1Cn1c(N2CCC[C@@H](N)C2)nc2c(Br)csc2c1=O` [Compound 4, (R)-2-((2-(3-aminopiperidin-1-yl)-7-bromo-4-oxothieno[3,2-d]pyrimidin-3(4H)-yl)methyl)benzonitrile] displayed an IC50 of 8.78 nM.
Take `N#Cc1ccccc1Cn1c(N2CCC[C@@H](N)C2)nc2cc(C(=O)N3CCC[C@H]3CO)sc2c1=O` [Compound 128, 2-((2-((R)-3-aminopiperidin-1-yl)-6-((S)-2-(hydroxymethyl)pyrrolidine-1-carbonyl)-4-oxothieno[3,2-d]pyrimidin-3(4H)-yl)methyl)benzonitrile]: the “DPP 9 IC50” value in assay [1] is recorded as “N.I”. The “DPP 7 IC50” value in assay [2] is listed as “N.I”. Besides, the results for the IC50 in assay [3] and in assay [4] were 30.7 nM and 39000 nM, respectively.
Turning to `N#Cc1ccccc1Cn1c(N2CCC[C@@H](N)C2)nc2c(C(=O)N[C@H]3CCOC3=O)csc2c1=O` [Compound 92, 2-((R)-3-aminopiperidin-1-yl)-3-(2-cyanobenzyl)-4-oxo-N-((S)-2-oxotetrahydrofuran-3-yl)-3,4-dihydrothieno[3,2-d]pyrimidine-7-carboxamide], the “DPP 9 IC50” value in assay [1] is “N.I”. In assay [2], the “DPP 7 IC50” value was “N.I”. Moreover, the IC50 in assay [3] was determined as 21.7 nM; in assay [4] it was 76700 nM.
In the case of `N#Cc1ccccc1Cn1c(N2CCC[C@@H](N)C2)nc2cc(C(Br)Br)sc2c1=O` [Compound 98, (R)-2-((2-(3-aminopiperidin-1-yl)-6-(dibromomethyl)-4-oxothieno[3,2-d]-pyrimidin-3(4H)-yl)methyl)benzonitrile], in assay [2], the “DPP 7 IC50” value is reported as “N.I”. Also, it took 9.95 nM to reach half-maximal inhibition in assay [3] (IC50).
`N#Cc1ccccc1Cn1c(N2CCC[C@@H](N)C2)nc2cc(C(=O)N3CCC(CO)CC3)sc2c1=O` [Compound 124, (R)-2-((2-(3-aminopiperidin-1-yl)-6-(4-(hydroxymethyl)piperidine-1-carbonyl)-4-oxothieno[3,2-d]pyrimidin-3(4H)-yl)methyl)benzonitrile]: the “DPP 9 IC50” value in assay [1] is on record as “N.I”. Also, the “DPP 7 IC50” value in assay [2] was “N.I”. The IC50 in assay [3] was 26.9 nM; in assay [4], 43900 nM.
Turning to `CCOC(=O)CCNC(=O)c1csc2c(=O)n(Cc3ccccc3C#N)c(N3CCC[C@@H](N)C3)nc12` [Compound 88, (R)-ethyl 3-(2-(3-aminopiperidin-1-yl)-3-(2-cyanobenzyl)-4-oxo-3,4-dihydrothieno[3,2-d]pyrimidine-7-carboxamido)propanoate], in assay [1], the “DPP 9 IC50” value is listed as “N.I”. The “DPP 7 IC50” value in assay [2] is “N.I”. In addition, the IC50 in assay [3] is 14.8 nM; in assay [4] it was 54900 nM.
For the compound `N#Cc1ccccc1Cn1c(N2CCC[C@@H](N)C2)nc2c(C(=O)NCCCO)csc2c1=O` [Compound 93, (R)-2-(3-aminopiperidin-1-yl)-3-(2-cyanobenzyl)-N-(3-hydroxypropyl)-4-oxo-3,4-dihydrothieno[3,2-d]pyrimidine-7-carboxamide], the “DPP 9 IC50” value in assay [1] is “N.I”. In addition, in assay [2], the “DPP 7 IC50” value is recorded as “N.I”. For the same compound, the IC50 in assay [3] was found to be 14.8 nM; in assay [4], 60700 nM.
For the compound `COC(=O)[C@@H]1CCCN1C(=O)c1cc2nc(N3CCC[C@@H](N)C3)n(Cc3ccccc3C#N)c(=O)c2s1` [Compound 125, (S)-methyl 1-(2-((R)-3-aminopiperidin-1-yl)-3-(2-cyanobenzyl)-4-oxo-3,4-dihydrothieno[3,2-d]pyrimidine-6-carbonyl)pyrrolidine-2-carboxylate], the IC50 worked out at 172000 nM in assay [1], 33.8 nM in assay [3] and 15500 nM in assay [4]. In addition, the “DPP 7 IC50” value in assay [2] is on record as “N.I”.
In turn, `N#Cc1ccccc1Cn1c(N2CCC[C@@H](N)C2)nc2c(Cl)c(Cl)sc2c1=O` [Compound 10, (R)-2-((2-(3-aminopiperidin-1-yl)-6,7-dichloro-4-oxothieno[3,2-d]pyrimidin-3(4H)-yl)methyl)benzonitrile] registered an IC50 in assay [3] of 90 nM.
For the compound `N#Cc1ccccc1Cn1c(N2CCC[C@@H](N)C2)nc2cc(F)sc2c1=O` [Compound 1, (R)-2-((2-(3-aminopiperidin-1-yl)-6-fluoro-4-oxothieno[3,2-d]pyrimidin-3(4H)-yl)methyl)benzonitrile], in assay [3], it took 34.7 nM to reach half-maximal inhibition (IC50). Compared with the last compound, the IC50 is about 2.6-fold lower.
`N#Cc1ccccc1Cn1c(N2CCC[C@@H](N)C2)nc2c3c(sc2c1=O)CCCC3` [Compound 27, (R)-2-((2-(3-aminopiperidin-1-yl)-4-oxo-6,7,8,9-tetrahydrobenzo[4,5]thieno-[3,2-d]pyrimidin-3(4H)-yl)methyl)-benzonitrile]: in assay [3], the IC50 was 35.5 nM.
`N#Cc1ccccc1Cn1c(N2CCC[C@@H](N)C2)nc2cc(Cl)sc2c1=O` [Compound 8, (R)-2-((2-(3-aminopiperidin-1-yl)-6-chloro-4-oxothieno[3,2-d]pyrimidin-3 (4H)-yl)methyl)benzonitrile]: in assay [3], the IC50 amounted to 45.6 nM. The IC50 values of the last two compounds are within 1.5-fold of each other.
Turning to `N#Cc1ccccc1Cn1c(N2CCC[C@@H](N)C2)nc2cc(C(=O)N[C@H]3CCOC3=O)sc2c1=O` [Compound 127, 2-((R)-3-aminopiperidin-1-yl)-3-(2-cyanobenzyl)-4-oxo-N-((S)-2-oxotetrahydrofuran-3-yl)-3,4-dihydrothieno[3,2-d]pyrimidine-6-carboxamide], the “DPP 9 IC50” value in assay [1] was “N.I”. In addition, the “DPP 7 IC50” value in assay [2] is reported as “N.I”. Moreover, the IC50 in assay [3] came to 24.6 nM; in assay [4] it was 52700 nM.
`N#Cc1ccccc1Cn1c(N2CCC[C@@H](N)C2)nc2c(Cl)csc2c1=O` [Compound 9, (R)-2-((2-(3-aminopiperidin-1-yl)-7-chloro-4-oxothieno[3,2-d]pyrimidin-3-(4H)-yl)methyl)benzonitrile] returned an IC50 in assay [3] of 36.8 nM.
Regarding `CCOC(=O)C1CCN(C(=O)c2cc3nc(N4CCC[C@@H](N)C4)n(Cc4ccccc4C#N)c(=O)c3s2)CC1` [Compound 129, (R)-ethyl 1-(2-(3-aminopiperidin-1-yl)-3-(2-cyanobenzyl)-4-oxo-3,4-dihydrothieno[3,2-d]pyrimidine-6-carbonyl)piperidine-4-carboxylate], the “DPP 9 IC50” value in assay [1] is on record as “N.I”. Besides, the “DPP 7 IC50” value in assay [2] is “N.I”. Further, the results for the IC50 in assay [3] and in assay [4] were 33.9 nM and 16300 nM, respectively.
Consider `CS(=O)(=O)CCNC(=O)c1cc2nc(N3CCC[C@@H](N)C3)n(Cc3ccccc3C#N)c(=O)c2s1` [Compound 126, (R)-2-(3-aminopiperidin-1-yl)-3-(2-cyanobenzyl)-N-(2-(methylsulfonyl)-ethyl)-4-oxo-3,4-dihydrothieno[3,2-d]-pyrimidine-6-carboxamide], for which the “DPP 9 IC50” value in assay [1] is “N.I”. For the same compound, the “DPP 7 IC50” value in assay [2] is recorded as “N.I”. The IC50 in assay [3] was 20.1 nM; in assay [4], 55900 nM.
As to `COC(=O)[C@@H]1CCCN1C(=O)c1csc2c(=O)n(Cc3ccccc3C#N)c(N3CCC[C@@H](N)C3)nc12` [Compound 91, (S)-methyl 1-(2-((R)-3-aminopiperidin-1-yl)-3-(2-cyanobenzyl)-4-oxo-3,4-dihydrothieno[3,2-d]pyrimidine-7-carbonyl)pyrrolidine-2-carboxylate], the “DPP 9 IC50” value in assay [1] was “N.I”. The “DPP 7 IC50” value in assay [2] is recorded as “N.I”. Moreover, the IC50 in assay [3] stood at 36.4 nM; in assay [4], 88000 nM.
As for `CS(=O)(=O)CCNC(=O)c1csc2c(=O)n(Cc3ccccc3C#N)c(N3CCC[C@@H](N)C3)nc12` [Compound 90, (R)-2-(3-aminopiperidin-1-yl)-3-(2-cyanobenzyl)-N-(2-(methylsulfonyl)-ethyl)-4-oxo-3,4-dihydrothieno[3,2-d]-pyrimidine-7-carboxamide], in assay [1], the “DPP 9 IC50” value is recorded as “N.I”. The “DPP 7 IC50” value in assay [2] is given as “N.I”. Besides, the IC50 in assay [3] came to 14.3 nM; in assay [4], 102000 nM.
Regarding `N#Cc1ccccc1Cn1c(N2CCC[C@@H](N)C2)nc2c(CO[C@H]3CCOC3)csc2c1=O` [Compound 87, 2-((2-((R)-3-aminopiperidin-1-yl)-4-oxo-7-((((S)-tetrahydrofuran-3-yl)oxy)methyl)thieno[3,2-d]pyrimidin-3(4H)-yl)methyl)benzonitrile], the “DPP 9 IC50” value in assay [1] was “N.I”. Also, the “DPP 7 IC50” value in assay [2] was “N.I”. The compound further displayed an IC50 in assay [3] of 26.5 nM. Besides, in assay [4], the “DPP 8 IC50” value is listed as “N.I”.

For orientation: IC50 means the concentration that gives 50% inhibition. Read a high IC50 as weaker potency.
